Measurements: PubChem BioAssay AID256 (DTP/NCI, 2004)
Toxic doses and inconclusive results are not listed.

Test system: CD2F1 mice, L1210 leukemia ip, survival T/C
Assay: NCI In Vivo Anticancer Drug Screen. Data for tumor model L1210 Leukemia (intraperitoneal) in CD2F1 (CDF1) mice
Conditions: higher = longer survival
Procedure, shortened: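 Antitumor effect is scored in animals hosting a serially transplanted tumor. Values compare compound-dosed animals against vehicle-only controls as a simple quotient.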

[1] = endpoint: mean survival time, dose: 100.0 mg/kg/injection, schedule: Q01DX009 (ip), vehicle: saline with Tween-80
[2] = endpoint: mean survival time, dose: 200.0 mg/kg/injection, schedule: Q01DX009 (ip), vehicle: saline with Tween-80
[3] = endpoint: mean survival time, dose: 12.5 mg/kg/injection, schedule: Q04DX002 (ip), vehicle: saline with Tween-80
[4] = endpoint: mean survival time, dose: 100.0 mg/kg/injection, schedule: Q04DX003 (ip), vehicle: saline with Tween-80
[5] = endpoint: mean survival time, dose: 200.0 mg/kg/injection, schedule: Q04DX003 (ip), vehicle: saline with Tween-80
[6] = endpoint: mean survival time, dose: 400.0 mg/kg/injection, schedule: Q01DX009 (ip), vehicle: saline with Tween-80
[7] = endpoint: mean survival time, dose: 400.0 mg/kg/injection, schedule: Q04DX003 (ip), vehicle: saline with Tween-80

C/C(=N\NC(=O)c1ccccc1O)c1cccc(/C(C)=N/NC(=O)c2ccccc2O)n1
T/C (endpoint: median survival time, dose: 3.0 mg/kg/injection, schedule: Q01DX009 (ip), vehicle: saline): 101 % of control | T/C (endpoint: median survival time, dose: 6.0 mg/kg/injection, schedule: Q01DX009 (ip), vehicle: saline): 106 % of control | T/C (endpoint: median survival time, dose: 12.0 mg/kg/injection, schedule: Q01DX009 (ip), vehicle: saline): 101 % of control | T/C (endpoint: median survival time, dose: 25.0 mg/kg/injection, schedule: Q01DX009 (ip), vehicle: saline): 93 % of control

COCCOCCN1CCN(CCCN2c3ccccc3Sc3ccc(C(F)(F)F)cc32)CC1
T/C (endpoint: mean survival time, dose: 37.5 mg/kg/injection, schedule: Q04DX003 (ip), vehicle: saline): 113 % of control | T/C (endpoint: mean survival time, dose: 50.0 mg/kg/injection, schedule: Q04DX003 (ip), vehicle: saline): 121 % of control

CCOC(=O)c1cc2c(=O)cccnc2o1
T/C (endpoint: mean survival time, dose: 75.0 mg/kg/injection, schedule: Q01DX001 (ip), vehicle: saline): 93 % of control | T/C (endpoint: mean survival time, dose: 150.0 mg/kg/injection, schedule: Q01DX001 (ip), vehicle: saline): 96 % of control | T/C (endpoint: mean survival time, dose: 300.0 mg/kg/injection, schedule: Q01DX001 (ip), vehicle: saline): 96 % of control

O=C(c1ccccc1)C(C(O)CCl)C(O)(C(F)(F)F)C(F)(F)F (centres undefined)
T/C [1]: 94 % of control | T/C [2]: 94 % of control

N#CC(=C=[N-])C(C#N)(C#N)Cc1ccccc1.[C-]#[O+].[C-]#[O+].[Fe+6].[c-]1[c-][c-][cH-][c-]1
T/C [3]: 93 % of control | T/C (endpoint: mean survival time, dose: 25.0 mg/kg/injection, schedule: Q04DX002 (ip), vehicle: saline with Tween-80): 97 % of control | T/C (endpoint: mean survival time, dose: 50.0 mg/kg/injection, schedule: Q04DX002 (ip), vehicle: saline with Tween-80): 97 % of control

COC(=O)/C=C/C=C/C(=O)OC
T/C [1]: 96 % of control | T/C [4]: 103 % of control | T/C [2]: 96 % of control | T/C [5]: 112 % of control | T/C [6]: 104 % of control | T/C [7]: 103 % of control

Oc1ccccc1Br
T/C (endpoint: mean survival time, dose: 100.0 mg/kg/injection, schedule: Q01DX001 (ip), vehicle: saline): 96 % of control | T/C (endpoint: mean survival time, dose: 200.0 mg/kg/injection, schedule: Q01DX001 (ip), vehicle: saline): 93 % of control

CCC1(O)C(=O)OCc2c1cc1n(c2=O)Cc2cc3ccc(C(=O)OC)cc3nc2-1 (centres undefined)
T/C (endpoint: median survival time, dose: 10.0 mg/kg/injection, schedule: Q04DX002 (ip), vehicle: saline with Tween-80): 107 % of control | T/C (endpoint: median survival time, dose: 20.0 mg/kg/injection, schedule: Q04DX002 (ip), vehicle: saline with Tween-80): 100 % of control | T/C (endpoint: median survival time, dose: 40.0 mg/kg/injection, schedule: Q04DX002 (ip), vehicle: saline with Tween-80): 106 % of control | T/C (endpoint: median survival time, dose: 80.0 mg/kg/injection, schedule: Q04DX002 (ip), vehicle: saline with Tween-80): 107 % of control

CC[C@@]1(O)C(=O)OCc2c1cc1n(c2=O)Cc2cc3c(OC)cccc3nc2-1
T/C (endpoint: mean survival time, dose: 0.13 mg/kg/injection, schedule: Q01DX009 (ip), vehicle: saline with Tween-80): 105 % of control | T/C (endpoint: mean survival time, dose: 0.25 mg/kg/injection, schedule: Q01DX009 (ip), vehicle: saline with Tween-80): 111 % of control | T/C (endpoint: mean survival time, dose: 1.0 mg/kg/injection, schedule: Q01DX009 (ip), vehicle: saline with Tween-80): 101 % of control | T/C (endpoint: mean survival time, dose: 1.0 mg/kg/injection, schedule: Q04DX003 (ip), vehicle: other): 105 % of control | T/C (endpoint: mean survival time, dose: 1.56 mg/kg/injection, schedule: Q01DX009 (ip), vehicle: saline with Tween-80): 157 % of control | T/C (endpoint: mean survival time, dose: 2.0 mg/kg/injection, schedule: Q04DX003 (ip), vehicle: other): 155 % of control | T/C (endpoint: mean survival time, dose: 2.25 mg/kg/injection, schedule: Q01DX009 (ip), vehicle: saline): 158 % of control | T/C (endpoint: mean survival time, dose: 3.13 mg/kg/injection, schedule: Q01DX009 (ip), vehicle: saline with Tween-80): 86 % of control | T/C (endpoint: mean survival time, dose: 3.8 mg/kg/injection, schedule: Q04DX003 (ip), vehicle: water): 154 % of control | T/C (endpoint: mean survival time, dose: 4.0 mg/kg/injection, schedule: Q04DX003 (ip), vehicle: other): 153 % of control | T/C (endpoint: mean survival time, dose: 7.5 mg/kg/injection, schedule: Q04DX003 (ip), vehicle: water): 90 % of control | T/C (endpoint: mean survival time, dose: 8.0 mg/kg/injection, schedule: Q04DX003 (ip), vehicle: other): 164 % of control

O=C1C(=O)c2ccccc2C(O)=C1[N+](=O)[O-]
T/C [1]: 96 % of control | T/C [4]: 100 % of control | T/C [5]: 103 % of control | T/C [7]: 112 % of control

Cc1cc(C)c(C(=O)c2ccccc2-c2ccccc2C(=O)c2c(C)cc(C)cc2C)c(C)c1
T/C [1]: 86 % of control | T/C [4]: 96 % of control | T/C [2]: 89 % of control | T/C [5]: 100 % of control | T/C [6]: 91 % of control | T/C [7]: 96 % of control

CC(=O)OCC1OC(n2cc(F)c(=O)[nH]c2=O)CC1OC(C)=O (centres undefined)
T/C (endpoint: mean survival time, dose: 50.0 mg/kg/injection, schedule: Q01DX009 (ip), vehicle: other): 123 % of control | T/C (endpoint: mean survival time, dose: 100.0 mg/kg/injection, schedule: Q01DX001 (ip), vehicle: other): 93 % of control | T/C (endpoint: mean survival time, dose: 200.0 mg/kg/injection, schedule: Q01DX001 (ip), vehicle: other): 110 % of control | T/C (endpoint: mean survival time, dose: 200.0 mg/kg/injection, schedule: Q01DX009 (ip), vehicle: other): 117 % of control | T/C (endpoint: mean survival time, dose: 400.0 mg/kg/injection, schedule: Q01DX001 (ip), vehicle: other): 102 % of control | T/C (endpoint: mean survival time, dose: 800.0 mg/kg/injection, schedule: Q01DX001 (ip), vehicle: other): 119 % of control

O=[N+]([O-])O.[Cu+2].[NH-]C1CCCCC1[NH-].[NH-]C1CCCCC1[NH-] (centres undefined)
T/C [3]: 94 % of control

C1CCC2C(C1)NC1CCCCC12 (centres undefined)
T/C (endpoint: mean survival time, dose: 25.0 mg/kg/injection, schedule: Q01DX009 (ip), vehicle: saline): 89 % of control | T/C (endpoint: mean survival time, dose: 50.0 mg/kg/injection, schedule: Q01DX009 (ip), vehicle: saline): 89 % of control

O=C(O)CCC(=O)c1ccc(Cl)c(Cl)c1
T/C (endpoint: mean survival time, dose: 50.0 mg/kg/injection, schedule: Q01DX009 (ip), vehicle: saline with Tween-80): 102 % of control | T/C [1]: 96 % of control | T/C [4]: 98 % of control | T/C [5]: 91 % of control

C1CC2CC1C1OC21 (centres undefined)
T/C (endpoint: mean survival time, dose: 100.0 mg/kg/injection, schedule: Q04DX003 (ip), vehicle: other): 94 % of control | T/C (endpoint: mean survival time, dose: 200.0 mg/kg/injection, schedule: Q04DX003 (ip), vehicle: other): 96 % of control | T/C (endpoint: mean survival time, dose: 400.0 mg/kg/injection, schedule: Q04DX003 (ip), vehicle: other): 91 % of control

CC(C)OC(=O)Nc1ncn[nH]1
T/C (endpoint: mean survival time, dose: 100.0 mg/kg/injection, schedule: Q04DX002 (ip), vehicle: saline with Tween-80): 104 % of control | T/C (endpoint: mean survival time, dose: 200.0 mg/kg/injection, schedule: Q04DX002 (ip), vehicle: saline with Tween-80): 108 % of control | T/C (endpoint: mean survival time, dose: 400.0 mg/kg/injection, schedule: Q04DX002 (ip), vehicle: saline with Tween-80): 93 % of control

CC(=O)Nc1ccc2c(c1)Cc1ccccc1-2
T/C [1]: 101 % of control | T/C [4]: 87 % of control | T/C [2]: 95 % of control | T/C [5]: 101 % of control | T/C [6]: 101 % of control | T/C [7]: 90 % of control

COC(=O)C(=[N+]=[N-])C(=O)OC
T/C [1]: 93 % of control | T/C [4]: 101 % of control | T/C [2]: 93 % of control | T/C [5]: 101 % of control | T/C [6]: 91 % of control | T/C [7]: 98 % of control

NC(=O)Nc1ccccc1
T/C (endpoint: mean survival time, dose: 100.0 mg/kg/injection, schedule: Q01DX009 (ip), vehicle: saline): 98 % of control | T/C (endpoint: mean survival time, dose: 200.0 mg/kg/injection, schedule: Q01DX009 (ip), vehicle: saline): 98 % of control | T/C (endpoint: mean survival time, dose: 400.0 mg/kg/injection, schedule: Q01DX009 (ip), vehicle: saline): 101 % of control

CCCCOP(=O)(OCCCC)OC(=C(Cl)Cl)P(=O)(OCCCC)OCCCC
T/C (endpoint: mean survival time, dose: 100.0 mg/kg/injection, schedule: Q04DX002 (ip), vehicle: saline): 89 % of control | T/C (endpoint: mean survival time, dose: 200.0 mg/kg/injection, schedule: Q04DX002 (ip), vehicle: saline): 92 % of control
